Structures are written as SMILES. Values joined by “and” are separate entries in the source; they are usually repeats but may differ in a detail not shown here. Identical values can stand only once.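 The compound was tested at five concentrations on cells cultured in 96-well plates, with a 48-hour exposure period. At the GI50, growth is halved. TGI: total growth inhibition.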 Some results are limits rather than exact numbers.

What all share (experiment): inhibition of tumour cell growth, NCI panel, 48 h
Assay [1] concerns HOP-92 NSCLC.
Assay [2] relates to COLO 205 colon.
Assay [3] concerns HOP-62 NSCLC.
Assay [4] has as its system SF-295 CNS.
The test system of assay [5] is SNB-75 CNS.
Assay [6] concerns CCRF-CEM leukemia.
The subject of assay [7] is SF-268 CNS.
The subject of assay [8] is MDA-MB-231 breast.
For assay [9], the system named is NCI-H522 lung.
For assay [10], the system named is KM12 colon.

Take `C=C(CN1C(=O)CN(C)C1=O)c1ccc(C(=O)Nc2ccccc2N)cc1`: the GI50 was 26.5 µM in assay [1]; 9.24 µM in assay [2]; 17.6 µM in assay [3]; 19.5 µM in assay [4]; 5.87 µM in [5]; 11.6 µM in [6]. Moreover, the GI50 was 11.5 µM in [7], 36.3 µM in assay [8], 4.04 µM in [9] and 28.6 µM in assay [10]. For the same compound, the TGI in assay [1] was more than 100 µM; in assay [2], 44.8 µM; in assay [3], more than 100 µM; in [4], more than 100 µM; in [5], 57.6 µM; in assay [6], 87.3 µM. Moreover, the TGI in assay [7] is more than 100 µM; in [8], more than 100 µM; in assay [9], 36.2 µM; in [10], more than 100 µM.

With `CN(CCO)CC[C@H](CSc1ccccc1)Nc1ccc(S(=O)(=O)NC(=O)c2ccc(N3CCC([C@@H](O)c4ccccc4-c4ccc(Cl)cc4)CC3)cc2)cc1S(=O)(=O)C(F)(F)F`, the GI50 is 0.0415 µM in assay [1]; 1.46 µM in [2]; 5.9 µM in assay [3]; 4.23 µM in assay [4]; 3.63 µM in assay [5]; 0.0472 µM in [6]. Also, the GI50 in [7] is 3.92 µM; in assay [8], 0.235 µM; in assay [9], 4.4 µM; in [10] it was 3.18 µM. Moreover, the TGI in assay [1] is 0.387 µM; in assay [2], 4.5 µM; in [3], 35.5 µM; in assay [4] it was 25.3 µM; in assay [5] it was 34.2 µM; in assay [6], more than 100 µM. In addition, the TGI in assay [7] is more than 46 µM; in [8], 0.936 µM; in [9], more than 72.9 µM; in [10], 13.8 µM.

Regarding `O=C1C(Cl)=C(Nc2cccc(Cl)c2)C(=O)N1Cc1ccc(Cl)cc1`, the GI50 in [1] is 1.3 µM; in assay [2], 1.46 µM; in assay [3], 1.53 µM; in assay [4] it was 0.532 µM; in assay [5], 1.48 µM; in assay [6] it was 0.318 µM. Further, the GI50 in assay [7] is 1.41 µM; in [8] it was 0.216 µM; in assay [9], 0.916 µM; in [10], 2.83 µM. For the same compound, the TGI in [1] is 4.96 µM; in assay [2] it was 18.2 µM; in [3], 13.9 µM; in [4], 15.6 µM; in assay [5], 14.6 µM; in assay [6], more than 19.8 µM. Further, the TGI in [7] came to 19.3 µM; in assay [8], 1.22 µM; in [9], 8.21 µM; in [10], 14.2 µM.

For the compound `COc1ccc(-c2nn(-c3cccc(Cl)c3)cc2-c2cc(-c3cccs3)[nH]c(=S)n2)cc1`, the GI50 in [1] is 2.2 µM; in [2], 2.35 µM; in assay [3], 7.14 µM; in assay [4], 2.07 µM; in assay [5], 3.49 µM; in assay [6] it was 2.8 µM. Besides, the GI50 in [7] is 4.52 µM; in [8] it was 3.52 µM; in assay [9] it was 2.54 µM; in assay [10], 3.67 µM. For the same compound, the TGI is 10.8 µM in assay [1]; 5.59 µM in [2]; 22.1 µM in assay [3]; 7.09 µM in [4]; 25.6 µM in [5]; more than 100 µM in [6]. In addition, the TGI in assay [7] is 73.6 µM; in assay [8] it was 26 µM; in assay [9], 8.86 µM; in assay [10], 14.4 µM.

`CCOC(=O)N1CCN(/[N+]([O-])=N/Oc2ccc([N+](=O)[O-])cc2[N+](=O)[O-])CC1`: the GI50 was 0.122 µM in assay [1]; 0.349 µM in assay [2]; 3.14 µM in [3]; 1.73 µM in assay [4]; 4.92 µM in assay [5]; 0.158 µM in assay [6]. The GI50 in assay [7] is 3.86 µM; in [8], 1.99 µM; in [9], 4.36 µM; in assay [10] it was 1.78 µM. Moreover, the TGI came out at 3.75 µM in assay [1]; 14.4 µM in [2]; 13.6 µM in assay [3]; 4.56 µM in [4]; 18.8 µM in assay [5]; 12.2 µM in assay [6]. Besides, the TGI turned out to be 10.6 µM in [7], 7.08 µM in assay [8], 22.4 µM in assay [9] and 8.56 µM in [10].

With `O=C1C(Cl)=C(Nc2cccc(F)c2)C(=O)N1Cc1ccc(Cl)cc1`, the GI50 in [1] is 11.4 µM; in [2] it was 0.516 µM; in assay [3], 0.974 µM; in [4], 1.16 µM; in [5], 0.438 µM; in assay [6], 0.118 µM. Further, the GI50 in [7] was 1.43 µM; in assay [8], 0.242 µM; in assay [9], 3.09 µM; in assay [10], 2.66 µM. For the same compound, the TGI in [1] is 26.2 µM; in assay [2], 11.9 µM; in assay [3] it was 7.19 µM; in assay [4] it was 10.9 µM; in assay [5], 7.63 µM; in assay [6] it was 11.1 µM. The TGI in assay [7] was found to be 8.07 µM; in assay [8], 4.7 µM; in assay [9], 13.3 µM; in assay [10], 19.1 µM.

Turning to `COc1cccc(N2CCN(CC(=O)N3CCN(c4nnc(-c5ccc(Cl)cc5)c(-c5ccc(Cl)cc5)n4)CC3)CC2)c1`, the GI50 is 14.7 µM in assay [1]; 22.2 µM in [2]; 32.1 µM in [3]; 28.9 µM in [4]; 19 µM in assay [5]; 27.2 µM in assay [6]. For the same compound, the GI50 in assay [7] was more than 100 µM; in assay [8], 34.2 µM; in assay [9] it was 19.8 µM; in assay [10], 14.3 µM. Besides, the TGI in [1] was 36.4 µM; in assay [2], more than 100 µM; in assay [3], more than 100 µM; in assay [4], more than 100 µM; in assay [5], 52.9 µM; in [6], more than 100 µM. In addition, the TGI in [7], in assay [8], in assay [9] and in assay [10] was more than 100 µM in each case.

With `COc1ccc2[nH]cc(-c3ccc(-c4c[nH]c5ccc(OC)cc45)s3)c2c1`, the GI50 is 4.64 µM in assay [1]; 4.68 µM in assay [2]; 4.67 µM in assay [3]; 2.8 µM in assay [4]; 7.12 µM in assay [5]; 0.345 µM in [6]. Further, the GI50 in assay [7] was 8.11 µM; in assay [8], 2.88 µM; in [9] it was 1.56 µM; in assay [10] it was 2.37 µM. For the same compound, the TGI in [1] was determined as 19.5 µM; in [2] it was 11.5 µM; in assay [3], 10.5 µM; in [4], 8.47 µM; in assay [5], 19.5 µM; in assay [6], 13.6 µM. Besides, the TGI in assay [7] worked out at 31.7 µM; in [8], 8.55 µM; in assay [9], 4.46 µM; in assay [10] it was 6.67 µM.

Take `C[C@]12CC[C@@H]3c4ccc(OC(=O)N(CCCl)CCCl)cc4CC[C@H]3[C@@H]1CC[C@@H]2O`: the GI50 in [1] was 9.04 µM; in assay [2], 2.99 µM; in [3] it was 2.44 µM; in assay [4], 0.819 µM; in assay [5], 2.48 µM; in assay [6] it was 1.21 µM. The GI50 is 3.48 µM in assay [7], 2.59 µM in assay [8], 2.53 µM in [9] and 3.1 µM in [10]. Further, the TGI in assay [1] was 43.2 µM and 6.51 µM; in assay [2], 8.94 µM; in assay [4], 4.14 µM; in assay [5], 15.1 µM; in assay [6], 6.83 µM and 3.45 µM; in assay [7], 18.9 µM and 3.14 µM. Moreover, the TGI in assay [8] came out at 8.29 µM; in [9] it was 15.2 µM; in [10], 9.77 µM.

Consider `CCN(Cc1cc(Nc2nc(C)cn3c(-c4cn[nH]c4)cnc23)sn1)C(C)(C)CO`, for which the GI50 in [1] is 0.0119 µM; in assay [2] it was less than 0.01 µM; in assay [3] it was 0.0411 µM; in assay [4] it was 0.0468 µM; in assay [5] it was 0.0107 µM; in assay [6] it was less than 0.01 µM. The GI50 in assay [7] is 0.0376 µM; in assay [8] it was 0.0508 µM; in assay [9], 0.0227 µM; in [10], 0.0328 µM. For the same compound, the TGI came out at 0.0714 µM in assay [1]; 0.132 µM in [2]; 0.688 µM in [3]; 3.36 µM in [4]; 0.0365 µM in [5]; 9.55 µM in assay [6]. Also, the TGI in [7] is 1.87 µM; in assay [8], 4.35 µM; in assay [9] it was 2.26 µM; in assay [10], 10.4 µM.

For the compound `C[C@@]1(C(=O)O)CCC[C@]2(C)C1CC[C@@]13CC(=O)[C@@](CO)(CC[C@]12O)C3` (some centres not stated), the GI50 in assay [1] is 11.7 µM; in [2], 6.16 µM; in [3], more than 100 µM; in assay [4] it was more than 100 µM; in assay [5], more than 100 µM; in assay [6], more than 100 µM. Moreover, the GI50 in assay [7], in assay [8], in [9] and in assay [10] was more than 100 µM in each case. The TGI in [1] is 97.8 µM; in assay [2], more than 100 µM; in assay [3] it was more than 100 µM; in [4] it was more than 100 µM; in assay [5], more than 100 µM; in assay [6] it was more than 100 µM. Also, the TGI in assay [7], in assay [8], in [9] and in assay [10] was more than 100 µM in each case.

In the case of `C/C(=N\NC(=S)N1CC2CCC(CC2)C1)c1nccs1`, the TGI in assay [1] amounted to 7.21 µM; in assay [2], 16 µM; in [3], 5.66 µM; in assay [4] it was 7.81 µM; in [5], 16.2 µM; in [6], 0.445 µM. In addition, the TGI is 9.41 µM in [7], 19.9 µM in [8], 14 µM in assay [9] and 17.6 µM in assay [10].

As for `COc1cc(C(O)CCBr)c(OC)cc1C` (configuration not stated), the TGI is more than 100 µM in [1]; more than 57 µM in assay [2]; more than 93.5 µM in assay [3]; more than 73.1 µM in assay [4]; more than 100 µM in assay [5]; more than 52.7 µM in [6]. Moreover, the TGI was more than 100 µM in assay [7], more than 72.7 µM in assay [8], more than 66.3 µM in [9] and more than 86.7 µM in assay [10].

For `N#CC1(C#N)C2(c3ccccc3)OC(c3ccccc3)(c3cc4ccccc4cc32)C1(C#N)C#N`, the TGI in assay [1] worked out at 7.05 µM; in assay [2], 18.1 µM; in assay [3], 36.4 µM; in [4], 29.9 µM; in assay [5], 30.1 µM; in [6], 3.29 µM. Moreover, the TGI stood at 39.5 µM in [7], 31.9 µM in assay [8], 8.43 µM in assay [9] and 23.7 µM in assay [10].

On to `COc1cc(/C=C\c2cc(OC)c(OC)c(OC)c2)cc(NC(=O)/C=C/c2cc(OC)c(OC)c(OC)c2)c1OC`, for which the GI50 in assay [1] is 4.68 µM; in assay [2] it was 4.2 µM; in assay [3] it was 7.21 µM; in assay [5], 1.82 µM; in [6], 2.67 µM; in assay [7] it was more than 100 µM. For the same compound, the GI50 in assay [8] is 5.43 µM; in assay [9] it was 2.73 µM; in [10], 3.42 µM. Further, the TGI in assay [1], in assay [2], in assay [3], in assay [5], in assay [6] and in assay [7] was more than 100 µM each time. Besides, the TGI in assay [8], in assay [9] and in [10] was more than 100 µM throughout.

The record behind these values is PubChem BioAssay (NCI).
